Article PMC11234710, “Comparison of a novel potentiator of CFTR channel activity to ivacaftor in ameliorating mucostasis caused by cigarette smoke in primary human bronchial airway epithelial cells” (Respiratory Research, 2024)

Molecular target: F508del-CFTR (Homo sapiens, UniProt P13569, DEL508-508)
Assay: fluorescence membrane potential assay in HEK-293 cells expressing F508del-CFTR, […] °C, forskolin activated
Type: cell-based

Sequence of F508del-CFTR (P13569 with tags, fused parts or gaps DEL508-508): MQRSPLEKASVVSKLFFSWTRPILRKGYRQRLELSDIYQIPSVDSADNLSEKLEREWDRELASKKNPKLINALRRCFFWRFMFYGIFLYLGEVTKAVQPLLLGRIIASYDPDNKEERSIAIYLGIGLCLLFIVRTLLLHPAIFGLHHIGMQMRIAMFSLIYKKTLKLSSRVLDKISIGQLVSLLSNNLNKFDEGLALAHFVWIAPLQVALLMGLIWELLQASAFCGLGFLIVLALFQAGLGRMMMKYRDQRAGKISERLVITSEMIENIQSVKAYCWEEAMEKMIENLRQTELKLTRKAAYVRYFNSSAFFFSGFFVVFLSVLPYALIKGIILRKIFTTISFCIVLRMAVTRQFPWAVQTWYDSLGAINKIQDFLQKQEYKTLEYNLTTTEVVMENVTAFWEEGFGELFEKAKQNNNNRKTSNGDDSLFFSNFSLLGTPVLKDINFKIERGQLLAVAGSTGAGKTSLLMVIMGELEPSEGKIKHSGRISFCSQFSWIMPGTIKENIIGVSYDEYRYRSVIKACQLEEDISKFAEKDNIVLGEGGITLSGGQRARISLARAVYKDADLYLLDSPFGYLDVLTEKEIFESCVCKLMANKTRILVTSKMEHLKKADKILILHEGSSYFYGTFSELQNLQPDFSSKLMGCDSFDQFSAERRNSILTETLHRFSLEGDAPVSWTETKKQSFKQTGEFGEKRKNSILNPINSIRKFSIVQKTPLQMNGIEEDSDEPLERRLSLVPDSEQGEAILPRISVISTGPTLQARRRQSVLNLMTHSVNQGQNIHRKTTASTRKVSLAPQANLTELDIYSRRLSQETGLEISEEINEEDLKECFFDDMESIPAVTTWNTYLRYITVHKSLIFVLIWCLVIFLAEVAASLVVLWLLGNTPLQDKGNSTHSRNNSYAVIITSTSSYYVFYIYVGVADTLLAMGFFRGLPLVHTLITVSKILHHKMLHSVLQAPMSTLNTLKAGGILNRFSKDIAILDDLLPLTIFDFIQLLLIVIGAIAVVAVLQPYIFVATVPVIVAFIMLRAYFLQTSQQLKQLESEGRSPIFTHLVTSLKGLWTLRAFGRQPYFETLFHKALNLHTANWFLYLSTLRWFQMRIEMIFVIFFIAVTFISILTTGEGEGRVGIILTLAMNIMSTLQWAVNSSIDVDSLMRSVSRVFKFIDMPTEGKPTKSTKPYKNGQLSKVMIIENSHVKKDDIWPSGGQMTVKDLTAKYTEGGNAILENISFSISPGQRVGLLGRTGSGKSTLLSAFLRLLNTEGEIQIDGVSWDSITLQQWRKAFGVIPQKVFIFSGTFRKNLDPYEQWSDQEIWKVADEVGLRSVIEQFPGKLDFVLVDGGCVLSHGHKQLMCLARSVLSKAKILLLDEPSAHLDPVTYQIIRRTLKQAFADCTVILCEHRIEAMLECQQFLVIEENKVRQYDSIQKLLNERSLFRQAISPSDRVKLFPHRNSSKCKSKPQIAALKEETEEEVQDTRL

Molecule `CC(C)(C)c1cc(C(C)(C)C)c(NC(=O)c2c[nH]c3ccccc3c2=O)cc1O` [VX-770] has an EC50 of 384 nM.
